Experimental findings from EP0496332A1, “Alpha-aminoquinolinoyl-[3]-penicillines, process for their preparation and their use as antibacterial agents” (ARZNEIMITTELWERK DRESDEN GmbH, priority 1991, dated 1992) are described below.

Holding throughout (assay): In-vitro test, inhibitory concentration by dilution series
Holding throughout (type): cell-based

One experiment deals with Citrobacter freudii. The settings on record: XIV = Citrobacter freudii, Laborstämme; step = concentration with no visible growth; read-out: Hemmkonzentration nach Verdünnung (Verdünnungsreihe) (converted). The source says:
(§1) Die antibiotische Wirksamkeit erfindungsgemäßer Verbindungen wurde in der üblichen Weise durch Ermittlung der Hemmkonzentrationen nach Verdünnung ermittelt.
(§2) Die erhaltenen Ergebnisse sind in der nachstehenden Tabelle zusammengefaßt.

Another experiment deals with Enterokokken. Conditions: XI = Enterokokken, Laborstämme; step = concentration with no visible growth; read-out: Hemmkonzentration nach Verdünnung (Verdünnungsreihe) (converted).
Excerpt: as §1, §2

The subject of experiment [1] is Pseudomonas aeruginosa SG 137. The settings on record: SG137; V = Pseudomonas aeruginosa SG 137; step = concentration with no visible growth; read-out: Hemmkonzentration nach Verdünnung (Verdünnungsreihe) (converted).
Excerpt: as §1, §2

The subject of experiment [2] is Salmonella gallinarium ATCC 9184. The settings on record: ATCC9184; VI = Salmonella gallinarium ATCC 9184; step = concentration with no visible growth; read-out: Hemmkonzentration nach Verdünnung (Verdünnungsreihe) (converted).
Excerpt: as §1, §2

Experiment [3] concerns Pseudomonas aeruginosa NCTC 10701. Conditions: NCTC10701; IV = Pseudomonas aeruginosa NCTC 10701; step = concentration with no visible growth; read-out: Hemmkonzentration nach Verdünnung (Verdünnungsreihe) (converted).
Excerpt: as §1, §2

Experiment [4] has as its system Serratia marcescens SG 621. Conditions: SG621; VIII = Serratia marcescens SG 621; step = concentration with no visible growth; read-out: Hemmkonzentration nach Verdünnung (Verdünnungsreihe) (converted).
Excerpt: as §1, §2

Experiment [5] has as its system Staphylococcus aureus SG 511. The settings on record: SG511; II = Staphylococcus aureus SG 511; step = concentration with no visible growth; read-out: Hemmkonzentration nach Verdünnung (Verdünnungsreihe) (converted).
Excerpt: as §1, §2

A further experiment has as its system Proteus vulgaris OX 19. The settings on record: OX19; III = Proteus vulgaris OX 19; step = concentration with no visible growth; read-out: Hemmkonzentration nach Verdünnung (Verdünnungsreihe) (converted).
Excerpt: as §1, §2

Experiment [6] relates to Staphylococcus epidermidis. The settings on record: X = Staphylococcus epidermidis, Laborstämme; step = concentration with no visible growth; read-out: Hemmkonzentration nach Verdünnung (Verdünnungsreihe) (converted).
Excerpt: as §1, §2

The test system of a further experiment is Escherichia coli. Conditions: XII = Escherichia coli, Laborstämme; step = concentration with no visible growth; read-out: Hemmkonzentration nach Verdünnung (Verdünnungsreihe) (converted).
Excerpt: as §1, §2

In the next experiment the test system is Enterobacter cloacae. Conditions: XIII = Enterobacter cloacae, Laborstämme; step = concentration with no visible growth; read-out: Hemmkonzentration nach Verdünnung (Verdünnungsreihe) (converted).
Excerpt: as §1, §2

Experiment [7] deals with Klebsiella pneumoniae SG 117. Conditions: SG117; VII = Klebsiella pneumoniae SG 117; step = concentration with no visible growth; read-out: Hemmkonzentration nach Verdünnung (Verdünnungsreihe) (converted).
Excerpt: as §1, §2

In a further experiment the test system is Staphylococcus aureus. Conditions: IX = Staphylococcus aureus, Laborstämme; step = concentration with no visible growth; read-out: Hemmkonzentration nach Verdünnung (Verdünnungsreihe) (converted).
Excerpt: as §1, §2

Another experiment deals with Bacillus subtilis SG 119. Conditions: SG119; I = Bacillus subtilis SG 119; step = concentration with no visible growth; read-out: Hemmkonzentration nach Verdünnung (Verdünnungsreihe) (converted).
Excerpt: as §1, §2

≈ marks a conversion by molar mass, not a printed value.

On to `CCc1cc2c(OC(=O)OCC(C)C)c(C(=O)N[C@@H](C(=O)N[C@@H]3C(=O)N4[C@@H]3SC(C)(C)[C@@H]4C(=O)O)c3ccccc3)cnc2cc1COC(C)CC` (stereo partly drawn) [Beisp. 22, 6-[D-(-)-α-([4'-Isobutoxycarbonyloxy-6'-ethyl-7'-s-butoxymethylen-chinolinoyl-3']-carboxamido)-α-phenylacetamido]-penicillansäure-Natriumsalz], for which the MIC with Citrobacter freudii was 3.12 µM (≈ 2.29 µg/mL); in the experiment on Enterokokken it was 12.5 µM (≈ 9.19 µg/mL); in experiment [1], 12.5 µM (≈ 9.19 µg/mL); in experiment [2], 1.56 µM (≈ 1.15 µg/mL); in experiment [3], 0.78 µM (≈ 0.573 µg/mL); in experiment [4] it was 1.56 µM (≈ 1.15 µg/mL). The MIC in experiment [5] is 1.56 µM (≈ 1.15 µg/mL); in the experiment with Proteus vulgaris OX 19, 0.39 µM (≈ 0.287 µg/mL); in experiment [6] it was 12.5 µM (≈ 9.19 µg/mL); in the experiment with Escherichia coli it was 1.56 µM (≈ 1.15 µg/mL); in the experiment on Enterobacter cloacae, 6.25 µM (≈ 4.59 µg/mL); in experiment [7], 0.78 µM (≈ 0.573 µg/mL). Moreover, the results for the MIC with Staphylococcus aureus and in the experiment on Bacillus subtilis SG 119 were 25 µM (≈ 18.4 µg/mL) and 1.56 µM (≈ 1.15 µg/mL), respectively.
